Measured values reported in patent US20130303532A1, “IMIDAZOPYRAZINES FOR USE AS MPS-1 AND TKK INHIBITORS IN THE TREATMENT HYPERPROLIFERATIVE DISORDERS” (BAYER INTELLECTUAL PROPERTY GmbH, priority 2010, published 2013).
Like-named read-outs stand apart in the source and are kept apart here.

Molecular target: T1, human kinase Mps-1 (Homo sapiens, UniProt P33981)
T1 construct: N-terminally GST-tagged human full length recombinant Mps-1 kinase; GST (N); purchased Invitrogen, Karslruhe, Germany PV4071
T1 sequence (P33981 1-857): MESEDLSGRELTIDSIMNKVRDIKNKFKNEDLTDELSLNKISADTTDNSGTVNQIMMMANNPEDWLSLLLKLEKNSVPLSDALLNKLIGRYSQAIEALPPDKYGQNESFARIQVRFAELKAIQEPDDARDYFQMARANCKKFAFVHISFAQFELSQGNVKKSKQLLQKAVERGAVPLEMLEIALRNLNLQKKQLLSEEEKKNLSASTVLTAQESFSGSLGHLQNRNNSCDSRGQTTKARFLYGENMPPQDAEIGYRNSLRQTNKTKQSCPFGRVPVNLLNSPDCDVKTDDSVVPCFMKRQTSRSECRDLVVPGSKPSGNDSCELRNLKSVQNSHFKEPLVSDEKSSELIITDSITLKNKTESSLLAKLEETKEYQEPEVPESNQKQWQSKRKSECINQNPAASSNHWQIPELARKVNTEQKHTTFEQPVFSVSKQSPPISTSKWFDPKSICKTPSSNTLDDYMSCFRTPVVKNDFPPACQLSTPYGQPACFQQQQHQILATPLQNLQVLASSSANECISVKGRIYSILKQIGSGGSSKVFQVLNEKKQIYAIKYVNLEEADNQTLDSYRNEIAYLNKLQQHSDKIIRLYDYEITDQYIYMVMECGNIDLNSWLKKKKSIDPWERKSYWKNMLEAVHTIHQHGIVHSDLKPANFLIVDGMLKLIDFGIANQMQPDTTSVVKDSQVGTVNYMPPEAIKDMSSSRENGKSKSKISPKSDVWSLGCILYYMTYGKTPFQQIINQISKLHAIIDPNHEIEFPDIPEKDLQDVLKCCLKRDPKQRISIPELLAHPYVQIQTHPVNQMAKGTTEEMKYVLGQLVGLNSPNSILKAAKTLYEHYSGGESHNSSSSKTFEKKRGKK
Test: Mps-1 kinase assay (TR-FRET)
Type: biochemical
Conditions: N-terminally GST-tagged human full length recombinant Mps-1, 10 μM ATP, 1 μM biotinylated peptide substrate, 60 min at 22° C.

Compound | IC50 (Mps1 IC50 [nM]) | IC50 (read-out: Mps1 IC50)
N#CCCNc1nccn2c(-c3ccc(C(=O)NC4CC4)c(Cl)c3)cnc12 [Example 7-52, 2-chloro-4-{8-[(2-cyanoethyl)amino]imi-dazo[1,2-a]pyrazin-3-yl}-N-cyclopropylbenzamide] | 272 nM | 
O=C(NC1CC1)c1ccc(-c2cnc3c(NCC(F)(F)C(F)(F)F)nccn23)cc1Cl [Example 7-53, 2-chloro-N-cyclopropyl-4-{8-[(2,2,3,3,3-pentafluoropropyl)amino]imi-dazo[1,2-a]pyrazin-3-yl}benzamide] | 106 nM | 
NC(=O)CCNc1nccn2c(-c3ccc(C(=O)NC4CC4)c(Cl)c3)cnc12 [Example 7-54, 4-{8-[(3-amino-3-oxopropyl)amino]imi-dazo[1,2-a]pyrazin-3-yl}-2-chloro-N-cyclopropylbenzamide] | 4870 nM | 
O=C(NC1CC1)c1ccc(-c2cnc3c(NCC(O)C(F)(F)F)nccn23)cc1Cl (centres unmarked) [Example 7-55, 2-chloro-N-cyclopropyl-4-{8-[(3,3,3-trifluoro-2-hydroxypropyl)amino]imi-dazo[1,2-a]pyrazin-3-yl}benzamide] | 175 nM | 
O=C(NC1CC1)c1ccc(-c2cnc3c(NCCC(F)(F)F)nccn23)cc1Cl [Example 7-56, 2-chloro-N-cyclopropyl-4-{8-[(3,3,3-trifluoropropyl)amino]imi-dazo[1,2-a]pyrazin-3-yl}benzamide] | 43 nM | 
CC(O)CNc1nccn2c(-c3ccc(C(=O)NC4CC4)c(Cl)c3)cnc12 (centres unmarked) [Example 7-57, 2-chloro-N-cyclopropyl-4-{8-[(2-hydroxypropyl)amino]imi-dazo[1,2-a]pyrazin-3-yl}benzamide] | 401 nM | 
COCCCNc1nccn2c(-c3ccc(C(=O)NC4CC4)c(Cl)c3)cnc12 [Example 7-58, 2-chloro-N-cyclopropyl-4-{8-[(3-methoxypropyl)amino]imi-dazo[1,2-a]pyrazin-3-yl}benzamide] | 485 nM | 
O=C(NC1CC1)c1ccc(-c2cnc3c(NCC(F)F)nccn23)cc1Cl [Example 7-59, 2-chloro-N-cyclopropyl-4-{8-[(2,2-difluoroethyl)amino]imi-dazo[1,2-a]pyrazin-3-yl}benzamide] | 239 nM | 
Cn1ccc(CNc2nccn3c(-c4ccc(C(=O)NC5CC5)c(Cl)c4)cnc23)n1 [Example 7-60, 2-chloro-N-cyclopropyl-4-(8-{[(1-methyl-1H-pyrazol-3-yl)methyl]amino}imi-dazo[1,2-a]pyrazin-3-yl)benzamide] | 767 nM | 
Cn1nccc1CNc1nccn2c(-c3ccc(C(=O)NC4CC4)c(Cl)c3)cnc12 [Example 7-61, 2-chloro-N-cyclopropyl-4-(8-{[(1-methyl-1H-pyrazol-5-yl)methyl]amino}imi-dazo[1,2-a]pyrazin-3-yl)benzamide] | 269 nM | 
Cn1cc(CNc2nccn3c(-c4ccc(C(=O)NC5CC5)c(Cl)c4)cnc23)cn1 [Example 7-62, 2-chloro-N-cyclopropyl-4-(8-{[(1-methyl-1H-pyrazol-4-yl)methyl]amino}imi-dazo[1,2-a]pyrazin-3-yl)benzamide] | 308 nM | 
CCOC(C)CNc1nccn2c(-c3ccc(C(=O)NC4CC4)c(Cl)c3)cnc12 (centres unmarked) [Example 7-63, 2-chloro-N-cyclopropyl-4-{8-[(2-ethoxypropyl)amino]imi-dazo[1,2-a]pyrazin-3-yl}benzamide] | 409 nM | 
CC(C)(O)CNc1nccn2c(-c3ccc(C(=O)NC4CC4)c(Cl)c3)cnc12 [Example 7-64, 2-chloro-N-cyclopropyl-4-{8-[(2-hydroxy-2-methylpropyl)amino]imi-dazo[1,2-a]pyrazin-3-yl}benzamide] | 538 nM | 
O=C(NC1CC1)c1ccc(-c2cnc3c(NCc4ccc(Cl)s4)nccn23)cc1Cl [Example 7-65, 2-chloro-4-(8-{[(5-chlorothiophen-2-yl)methyl]amino}imi-dazo[1,2-a]pyrazin-3-yl)-N-cyclopropylbenzamide] | 25 nM | 
CS(=O)(=O)CCCNc1nccn2c(-c3ccc(C(=O)NC4CC4)c(Cl)c3)cnc12 [Example 7-66, 2-chloro-N-cyclopropyl-4-(8-{[3-(methylsulfonyl)propyl]ami-no}imidazo[1,2-a]pyrazin-3-yl)benzamide] |  | 519 nM
O=C(NC1CC1)c1ccc(-c2cnc3c(NC[C@@H](O)CO)nccn23)cc1Cl [Example 7-68, 2-chloro-N-cyclopropyl-4-{8-[(2,3-dihydroxypropyl)amino]imi-dazo[1,2-a]pyrazin-3-yl}benzamide] | 1720 nM | 

Compound | IC50 (Mps1 IC50 [nM]) | IC50 (read-out: Mps1 IC50)
CCCNc1nccn2c(-c3ccc(C(=O)NC4CC4)c(O)c3)cnc12 [Example 7-69, N-cyclopropyl-2-hydroxy-4-[8-(propylamino)imidazo[1,2-a]pyrazin-3-yl]benzamide] |  | 23.3 nM
O=C(NC1CC1)c1ccc(-c2cnc3c(NCCO)nccn23)cc1O [Example 7-70, N-cyclopropyl-2-hydroxy-4-{8-[(2-hydroxyethyl)amino]imi-dazo[1,2-a]pyrazin-3-yl}benzamide] | 414 nM | 
O=C(NC1CC1)c1ccc(-c2cnc3c(NCCCN4CCOCC4)nccn23)cc1O [Example 7-71, N-cyclopropyl-2-hydroxy-4-(8-{[3-(morpholin-4-yl)propyl]amino}imi-dazo[1,2-a]pyrazin-3-yl)benzamide] | 304 nM | 
O=C(NC1CC1)c1ccc(-c2cnc3c(NCC4CCCO4)nccn23)cc1O (centres unmarked) [Example 7-72, N-cyclopropyl-2-hydroxy-4-{8-[(tetrahydrofuran-2-ylmethyl)amino]imi-dazo[1,2-a]pyrazin-3-yl}benzamide] | 36.3 nM | 
O=C(NC1CC1)c1ccc(-c2cnc3c(NCCCN4CCCC4=O)nccn23)cc1O [Example 7-73, N-cyclopropyl-2-hydroxy-4-(8-{[3-(2-oxopyrrolidin-1-yl)propyl]amino}imi-dazo[1,2-a]pyrazin-3-yl)benzamide] | 593 nM | 
O=C(NC1CC1)c1ccc(-c2cnc3c(NCc4ccc(F)cc4)nccn23)cc1O [Example 7-74, N-cyclopropyl-4-{8-[(4-fluorobenzyl)amino]imi-dazo[1,2-a]pyrazin-3-yl}-2-hydroxybenzamide] | 98.2 nM | 
O=C(NC1CC1)c1ccc(-c2cnc3c(NCc4ccccc4)nccn23)cc1O [Example 7-75, 4-[8-(benzylamino)imidazo[1,2-a]pyrazin-3-yl]-N-cyclopropyl-2-hydroxybenzamide] |  | 2030 nM
O=C(NC1CC1)c1ccc(-c2cnc3c(NCc4cccs4)nccn23)cc1O [Example 7-76, N-cyclopropyl-2-hydroxy-4-{8-[(thiophen-2-ylmethyl)amino]imi-dazo[1,2-a]pyrazin-3-yl}benzamide] | 35.8 nM | 
CCNc1nccn2c(-c3ccc(C(=O)NC4CC4)c(O)c3)cnc12 [Example 7-77, N-cyclopropyl-4-[8-(ethylamino)imidazo[1,2-a]pyrazin-3-yl]-2-hydroxybenzamide] |  | 63.1 nM
O=C(NC1CC1)c1ccc(-c2cnc3c(NCCCO)nccn23)cc1O [Example 7-78, N-cyclopropyl-2-hydroxy-4-{8-[(3-hydroxypropyl)amino]imi-dazo[1,2-a]pyrazin-3-yl}benzamide] | 93.1 nM | 
O=C(NC1CC1)c1ccc(-c2cnc3c(NCc4ccco4)nccn23)cc1O [Example 7-79, N-cyclopropyl-4-{8-[(furan-2-ylmethyl)amino]imi-dazo[1,2-a]pyrazin-3-yl}-2-hydroxybenzamide] | 77.3 nM | 
CC(C)CNc1nccn2c(-c3ccc(C(=O)NC4CC4)c(O)c3)cnc12 [Example 7-80, N-cyclopropyl-2-hydroxy-4-{8-[(2-methylpropyl)amino]imi-dazo[1,2-a]pyrazin-3-yl}benzamide] | 15.5 nM | 
N#CCCNc1nccn2c(-c3ccc(C(=O)NC4CC4)c(O)c3)cnc12 [Example 7-81, 4-{8-[(2-cyanoethyl)amino]imi-dazo[1,2-a]pyrazin-3-yl}-N-cyclopropyl-2-hydroxybenzamide] | 51.3 nM | 
O=C(NC1CC1)c1ccc(-c2cnc3c(NCC(O)C(F)(F)F)nccn23)cc1O (centres unmarked) [Example 7-82, N-cyclopropyl-2-hydroxy-4-{8-[(3,3,3-trifluoro-2-hydroxypropyl)amino]imi-dazo[1,2-a]pyrazin-3-yl}benzamide] | 56.7 nM | 
O=C(NC1CC1)c1ccc(-c2cnc3c(NCCC(F)(F)F)nccn23)cc1O [Example 7-83, N-cyclopropyl-2-hydroxy-4-{8-[(3,3,3-trifluoropropyl)amino]imi-dazo[1,2-a]pyrazin-3-yl}benzamide] | 22.3 nM | 
CC(O)CNc1nccn2c(-c3ccc(C(=O)NC4CC4)c(O)c3)cnc12 (centres unmarked) [Example 7-84, N-cyclopropyl-2-hydroxy-4-{8-[(2-hydroxypropyl)amino]imi-dazo[1,2-a]pyrazin-3-yl}benzamide] | 96.9 nM | 
